Experimental data reported in patent US20210205292A1, “INHIBITORS OF CREB-CBP INTERACTION FOR TREATMENT OF LEUKEMIA” (The Board of Trustees of the Leland Stanford Junior …, priority 2016, published 2021).
“Also recorded” adds a separate entry of the source. Blank lines part the entries; values can stand above or below the compound they belong to.

Experiments:
HL-60 cells [1] = assay: HL-60 cell viability, Trypan blue exclusion assay; format: cell-based, human; conditions: 50 nM, 48 hours
From the text: FIG. 11, panels A-D, illustrates ABT-737 Causes Apoptosis in HL-60 Cells; CyTOF Gating Scheme. […] Panel D) CyTOF gating scheme, used to perform analysis specifically on AML cells within AML patient marrow samples.

HL-60 cells [2] = assay: Flow cytometry of apoptosis (c-PARP+, aqua amine+) in HL-60 cells; format: cell-based, human; conditions: 50 to 200 nM, 72 hours
Experimental: AML cell lines were purchased from ATCC and maintained with IMDM (Gibco) supplemented with 10% FBS (Fisher Scientific) and 1% PSG (Gibco). Cells were plated at a density of 2-4×10^5 cells/ml, and treated with various doses of Compound A in 0.1% DMSO or 0.1% DMSO alone. Cell counts and viability were determined using the Vi-CELL XR Cell Viability Analyzer (Beckman Coulter). HL-60 and KG-1 cells overexpressing CREB or CBP were generated using lentiviral gene delivery with subsequent puromycin selection and FACs sorting for GFP. CREB knockdown was achieved by infecting cells with a lentivirus expressing the shRNA sequence 5′-[…]-3′ (SEQ ID NO:). For chemotherapy combination experiments, combination index values were calculated using median effects analysis on Calcusyn software. Human patient bone marrow samples were cultured in DMEM plus 20% FBS and 1×PSG, supplemented with recombinant GM-CSF (20 ng/ml), G-CSF (20 ng/ml), SCF (50 ng/ml), IL-3 (20 ng/ml), and IL-6 (10 ng/ml). Cells were plated at a concentration of 1×10^5 cells/ml in a 12-well plate. Vehicle (0.1% DMSO) or Compound A (2 μM) was added for up to 72 hours. All samples contained >85% AML blasts and were not sorted prior to performing experiments. […] Single cell suspensions of bone marrow culture were subsequently analyzed on a D×P10 flow cytometer (Cytek). […]

CREB phosphorylation = CREB phosphorylation in HL-60 cells; format: cell-based, human; conditions: HL-60 cells; BI-D1870 5 μM, SB202190 10 μM, U0126 10 μM
From the text: FIG. 12, panels A-D, illustrates the results of CyTOF Phenotyping and Compound A Combination Studies. […] Viability for Compound A treatment alone was 87.4±7.3%, versus 55.3±3.4% and 49.5±2.3% when combined with ERK and RSK inhibitors, respectively (* indicates p<0.05 compared to cells treated with Compound A alone). Panel D) Compound A inhibits CREB phosphorylation in the presence of serum. HL-60 cells were serum-starved then stimulated with serum.
Cells were lysed in RIPA buffer (Sigma), and the protein concentrations were determined by BCA assay (Thermo Scientific Pierce). Lysates were solubilized in 6×SDS PAGE buffer and […] of protein was loaded into 6-15% SDS PAGE gels, pheresed, and then transferred onto […] PVDF membrane (Millipore). Primary antibodies were applied at a dilution of 1:1000. Anti-Bcl-2, -Bax, -Mcl-1, -Bcl-XL, -Cyclin A and -Cyclin D1 antibodies were purchased from Cell Signaling Technologies. Anti-total acetylated histone and -ac-H3K27 were purchased from Santa Cruz Biotechnologies. Anti-actin and -CREB antibodies were purchased from upstate. Secondary antibodies were used at a 1:2500 dilution and purchased from Thermo Scientific/Pierce. WesternBright ECL was used for image acquisition on Image Lab software (Bio-Rad).

HL-60 cells [3] = assay: HL-60 viability, combination of Compound A with kinase inhibitors; format: cell-based, human; conditions: 48 hours
[4] = test system: Nalm6 (human ALL cell line); assay: CellTiter Glo assay in Nalm6 cells; format: cell-based
Experimental: (§1) The compounds prepared according to the methods described herein and tested for activity in the CellTiter Glo assay in HL60 (Human promyelocytic leukemia cell line), Jukat (human T lymphocyte cell line for acute T cell leukemia) and/or Nalm6 (human ALL cell line) cells.
(§2) Compounds were prepared according to the methods described herein and tested for activity in the CellTiter Glo assay in HL60 (Human promyelocytic leukemia cell line), Jukat (human T lymphocyte cell line for acute Tcell leukemia) and/or Nalm6 (human ALL cell line) cells.

[5] = test system: Jukat (human T lymphocyte cell line for acute T cell leukemia); assay: CellTiter Glo assay in Jukat cells; format: cell-based
Experimental: as §1, §2

[6] = test system: HL60 (Human promyelocytic leukemia cell line); assay: CellTiter Glo assay in HL60 cells; format: cell-based
Experimental: as §1, §2

Caspase-3 = Caspase-3 protease activity (ApoTarget kit); format: cell-based; conditions: etoposide control
From the text: The ApoTarget Caspase-3 Protease Activity Kit (Invitrogen) was used per manufacturer's instructions.
The balance between pro- and anti-apoptotic protein expression contributes to cell fate decisions. CREB regulates the expression of several anti-apoptotic proteins, including Bcl-2, Bcl-XL and Mcl-1. Bcl-2 expression in particular is known to mediate resistance to chemotherapy and influence clinical outcome in a number of cancer types, including AML. The ability of Compound A to cause apoptosis by disrupting the CREB-driven expression of these anti-apoptotic proteins was examined. In HL-60 cells treated with Compound A, apoptosis is induced in a dose- and time-dependent manner. […] Compound A elicited apoptosis through the intrinsic apoptosis pathway, with activation of Caspase-3 (FIG. 5, panel B) and detectable Caspase-9 cleavage (data not shown). Relative caspase-3 activity at 24 hours: 5.4±0.8 for etoposide, 1±0.78, 0.93±0.71, 1.02±0.67, 2.9±0.58, 5.1±0.63, 4.1±0.71 for 0, 1, 1.5, 2, 2.5 and 3 mM Compound A, respectively. Activity at 72 hours: 1.2±0.05 for etoposide, 1.0±0.02, 1.9±0.03, 3.7±0.04, 4.4±0.05, 2.1±0.03, 1.9±0.02 for 0, 1, 1.5, 2, 2.5 and 3 mM Compound A, respectively. The transcription of Bcl-2 decreased following 72 hours of 2 mM Compound A treatment (FIG. 5, panel C), and this was verified by Western blot analysis (FIG. 5, panel D). […] To confirm whether loss of Bcl-2 function alone is sufficient to induce apoptosis in AML cells, HL-60 cells were treated with the validated Bcl-2 inhibitor ABT-737 (50 to 200 nM). […] Bcl-2 levels are influenced by CREB expression in these AML cell lines (FIG. 11, panel C).

KG-1 cells = assay: Viable cell count of engineered KG-1 cell lines (CREB KD, GFP, CREB OE, CBP OE); format: cell-based; conditions: same four KG-1 cell lines, 30 μM
Experimental: AML cell lines were purchased from ATCC and maintained with IMDM (Gibco) supplemented with 10% FBS (Fisher Scientific) and 1% PSG (Gibco). Cells were plated at a density of 2-4×10^5 cells/ml, and treated with various doses of Compound A in 0.1% DMSO or 0.1% DMSO alone. Cell counts and viability were determined using the Vi-CELL XR Cell Viability Analyzer (Beckman Coulter). HL-60 and KG-1 cells overexpressing CREB or CBP were generated using lentiviral gene delivery with subsequent puromycin selection and FACs sorting for GFP. CREB knockdown was achieved by infecting cells with a lentivirus expressing the shRNA sequence 5′-[…]-3′ (SEQ ID NO:). For chemotherapy combination experiments, combination index values were calculated using median effects analysis on Calcusyn software. Human patient bone marrow samples were cultured in DMEM plus 20% FBS and 1×PSG, supplemented with recombinant GM-CSF (20 ng/ml), G-CSF (20 ng/ml), SCF (50 ng/ml), IL-3 (20 ng/ml), and IL-6 (10 ng/ml). Cells were plated at a concentration of 1×10^5 cells/ml in a 12-well plate. Vehicle (0.1% DMSO) or Compound A (2 μM) was added for up to 72 hours. All samples contained >85% AML blasts and were not sorted prior to performing experiments. Immunostaining and flow cytometry analyses were performed according to standard procedures. All antibodies were purchased from BD Biosciences. Single cell suspensions of bone marrow culture were subsequently analyzed on a D×P10 flow cytometer (Cytek). Bone marrow from AML patients were collected through voluntary patient participation at University of California, Los Angeles (Los Angeles, Calif., USA) and Stanford University (Palo Alto, Calif., USA) in compliance with the Institutional Review Board regulations of each institution.
To test the effects of CREB inhibition on AML cells, four AML cell lines were treated with doses of Compound A ranging from 100 pM to 10 μM for 48 hours. […] KG-1 cells were less sensitive to Compound A and expressed lower levels of CREB compared to HL-60 cells (FIG. 2, panel A). CREB was overexpressed to determine whether sensitivity of KG-1 cells to Compound A could be increased. KG-1 cell lines in which CREB or CBP was overexpressed, or CREB was knocked down by shRNA, were generated (FIG. 2C). A KG-1 cell line expressing only GFP was used as a control. These cell lines were treated with a range of Compound A concentrations for 48 hours (FIG. 2D). Experiments were also performed to examine the efficacy of combining Compound A with cytarabine or daunorubicin, standard drugs used in AML therapy.

[7] = test system: CREB-driven promoter (CRE); assay: CREB-driven (CRE) luciferase reporter in KG-1 cells; format: cell-based; conditions: KG-1 cells, 6 hours; 3, 10 and 30 μM
Experimental: (§3) KG-1 cell lines were created to express luciferase in a CREB-dependent or non-CREB-dependent fashion using lentiviral gene delivery. Cells were sorted for mCherry expression by flow cytometry and selected with puromycin. Luciferase activity was measured on a […] using the Promega Luciferase Activity Kit (Promega) per manufacturer's instructions following six hours of treatment with Compound A or 0.1% DMSO. The split Renilla luciferase complementation assay has been described previously (Li BX, and Xiao X. Discovery of a small-molecule inhibitor of the KIX-KID interaction. Chembiochem: a European journal of chemical biology. 2009; 10(17):2721-4). In this assay, the KID and KIX domains were fused to the N- and C-terminal regions of Renilla luciferase, respectively. Once KIX binds phosphorylated KID, the Renilla luciferase regions were brought together, resulting in luciferase activity.
(§4) To test the ability of Compound A to disrupt CREB-CBP binding in cells, a split Renilla luciferase complementation assay was performed. […] This early timepoint was selected to permit accurate reporter gene activity measurement prior to the onset of anticipated global cell dysfunction or death induced by Compound A. Treatment with 3 μM Compound A reduced luciferase activity by 33.2±7.7% at this timepoint. […] Thus, Compound A inhibits CREB function through disruption of CREB:CBP interaction.

CMV-driven promoter = assay: CMV-driven luciferase reporter in KG-1 cells; format: cell-based; conditions: 6 hours
Experimental: as §3, §4

Compound: CN(C)CC[C@H](CSc1ccccc1)Nc1ccc(S(=O)(=O)NC(=O)c2ccc(N3CCN(Cc4ccccc4-c4ccc(Cl)cc4)CC3)cc2)cc1[N+](=O)[O-] [ABT-737, reference compound]
cell viability (HL-60 cells [1]): reduced cell viability | apoptosis (HL-60 cells [2]): Apoptosis was induced

Compound: CC(C)CCN1c2nc(Nc3cc(F)c(O)c(F)c3)ncc2N(C)C(=O)C1C (centres unmarked) [BI-D1870, reference compound]
compensatory CREB phosphorylation following Compound A treatment (CREB phosphorylation): blocked compensatory CREB phosphorylation | effect of combination with Compound A on viability (HL-60 cells [3]): additive effects

Compound: O=C(Nc1cc(C(F)(F)F)cc(C(F)(F)F)c1)c1cc(Br)ccc1O [Compound 159]
IC50 ([4]; NALM-6, second Table 4): < 1000 nM | IC50 ([5]; second Table 4): < 1000 nM | IC50 ([6]; HL-60, second Table 4): < 1000 nM

Compound: Oc1ccc(-c2nc(-c3ccncc3)c(-c3ccc(F)cc3)[nH]2)cc1 [SB202190, reference compound]
compensatory CREB phosphorylation following Compound A treatment (CREB phosphorylation): blocked compensatory CREB phosphorylation | effect of combination with Compound A on viability (HL-60 cells [3]): additive effects

Compound: COc1cc([C@@H]2c3cc4c(cc3[C@@H](O[C@@H]3O[C@@H]5CO[C@@H](C)O[C@H]5[C@H](O)[C@H]3O)[C@H]3COC(=O)[C@H]23)OCO4)cc(OC)c1O [etoposide, reference compound]
relative caspase-3 activity (Caspase-3; 24 hours): 5.4±0.8 | relative caspase-3 activity (Caspase-3; 72 hours): 1.2±0.05

Compound: N-methyl-(4-chlorophenyl)-3-hydroxy-naphthamide [Analog B, reference compound]
viability or proliferation rate (KG-1 cells): no reduction in viability or proliferation rate | CREB-driven luciferase activity [7]: No statistical difference; also recorded: no significant effect | CMV-driven luciferase expression (CMV-driven promoter): No statistical difference; also recorded: no significant effect

More lines, main results first:

IC50 ([5]; Table 5): 100 to 1000 nM | IC50 ([6]; HL-60, Table 5): 100 to 1000 nM
Compound: O=C(Nc1ccc([N+](=O)[O-])cc1Cl)c1ccc2cccnc2c1O [Compound 82]
IC50 ([4]; NALM-6, Table 5): < 100 nM

IC50 ([5]; Table 5): 100 to 1000 nM | IC50 ([6]; HL-60, Table 5): 1000 to 10000 nM
Compound: O=C(Nc1cc(Cl)ccc1Cl)c1ccc2cccnc2c1O [Compound 83]
IC50 ([4]; NALM-6, Table 5): 100 to 1000 nM

IC50 ([5]; Table 5): < 100 nM | IC50 ([6]; HL-60, Table 5): 100 to 1000 nM
Compound: N#Cc1cc(Cl)ccc1NC(=O)c1ccc2cccnc2c1O [Compound 84]
IC50 ([4]; NALM-6, Table 5): 100 to 1000 nM

IC50 ([5]; Table 5): 100 to 1000 nM | IC50 ([6]; HL-60, Table 5): 100 to 1000 nM
Compound: N#Cc1ccc(NC(=O)c2ccc3cccnc3c2O)c(C#N)c1 [Compound 85]
IC50 ([4]; NALM-6, Table 5): 100 to 1000 nM

IC50 ([5]; Table 5): 100 to 1000 nM | IC50 ([6]; HL-60, Table 5): 1000 to 10000 nM
Compound: Cc1ccc(C#N)c(NC(=O)c2ccc3cccnc3c2O)c1 [Compound 86]
IC50 ([4]; NALM-6, Table 5): 100 to 1000 nM

IC50 ([5]; second Table 4): < 1000 nM | IC50 ([6]; HL-60, second Table 4): < 1000 nM
Compound: N#Cc1ccc(NC(=O)c2ccc(-c3ccccc3)cc2O)cc1 [Compound 101]
IC50 ([4]; NALM-6, second Table 4): < 1000 nM

IC50 ([5]; second Table 4): < 1000 nM | IC50 ([6]; HL-60, second Table 4): < 1000 nM
Compound: N#Cc1ccc(NC(=O)c2cc(Cl)c(F)cc2O)cc1 [Compound 161]
IC50 ([4]; NALM-6, second Table 4): > 10000 nM

IC50 ([5]; second Table 4): 1000 to 10000 nM | IC50 ([6]; HL-60, second Table 4): 1000 to 10000 nM
Compound: N#Cc1ccc(NC(=O)c2cc(-c3cc(F)cc(F)c3)ccc2O)cc1 [Compound 233]
IC50 ([4]; NALM-6, second Table 4): 1000 to 10000 nM
